Measured values from US20210078958A1, “QUINAZOLINE DERIVATIVE AND USE THEREOF” (MEDSHINE DISCOVERY INC., priority 2017, published 2021).

Columns and labels:
[1] = tested on: subcutaneous xenograft tumor of human gastric cancer NCI-N87 cells; experiment: Assay Example 5: in vivo pharmacodynamics, NCI-N87 xenograft; parameters: species or system BALB/c nude mouse; settings: 0.5 mg/kg
Procedure: Purpose of the assay: to evaluate the in vivo efficacy of test compounds disclosed herein on subcutaneous xenograft tumor of human gastric cancer NCI-N87 cells in a BALB/c nude mouse model.
Animals of the assay: female BALB/c nude mice, 6-8 weeks old, weighing 18-22 grams; supplier: shanghai sippr bk laboratory animals Ltd.
Human gastric cancer NCI-N87 cells were cultured in monolayer in vitro. The culture conditions were RPMI-1640 medium plus 10% fetal bovine serum, 100 U/mL penicillin, 100 μg/mL streptomycin, 37° C., 5% CO2. The passaging was performed by conventional digestion with trypsin-EDTA twice a week. When the cell saturation was 80%-90%, the cells were collected, counted and inoculated.
0.2 mL (10×10^6) of NCI-N87 cells (PBS+Matrigel, 1:1) were inoculated subcutaneously on the right back of each mouse. When the average tumor volume reached 156 mm^3, administration to each group was started.
The test compounds were formulated into a 0.05 mg/mL clear solution in the solvents of 10% NMP (N-methylpyrrolidone)+10% ethylene glycol stearate+80% water.
The assay index is to investigate whether tumor growth is inhibited, delayed or cured. Tumor diameter was measured twice a week with a vernier caliper. The calculation formula of tumor volume is: V=0.5a×b^2, wherein a and b represent the long and short diameters of tumor, respectively.
The antitumor efficacy of the compounds were evaluated by TGI (%) or tumor proliferation rate T/C (%). TGI (%) reflects the tumor growth inhibition rate. TGI (%) is calculated as follows: TGI (%)=[1−(average tumor volume at the end of administration for a certain treatment group−average tumor volume at the beginning of administration for this treatment group)/(average tumor volume at the end of treatment for a solvent control group−average tumor volume at the beginning of administration for this solvent control group)]×100%.
Tumor proliferation rate T/C (%): the calculation formula is as follows: T/C (%)=average tumor volume at the end of administration for a certain treatment group/average tumor volume at the end of treatment for the solvent control group×100%.
Statistical analysis included the mean and standard error (SEM) of tumor volume at each time point in each group (See Table 5-1 for specific data). […] The comparison between two groups was analyzed by T-test, and the comparison among three or more groups was analyzed by one-way ANOVA. […] All data analysis was carried out with SPSS 17.0. p<0.05 was considered a significant difference.

[2] = Assay Example 7: pharmacokinetics in mice; assay type: in vivo; settings: mouse, female BALB/c mice, plasma, dose not given
Procedure: Purpose of the assay: this assay aims to investigate in vivo plasma pharmacokinetics of the example compounds disclosed herein and the reference compound in female BALB/c mice after the single intravenous injection and intragastric administration thereof.
Animals of the assay: female BALB/c nude mice, 7-9 weeks old, weighted 17-23 grams; supplier: shanghai sippr bk laboratory animals Ltd.
Sample collection: at each time point, a 0.03 mL blood sample was collected from the saphenous vein of the test animal by puncture, and the actual blood collection time was recorded. All blood samples were added into commercial EDTA-K2 anticoagulation tubes with a specification of 1.5 mL (the supplier was Jiangsu KANGJIAN Medical Apparatus Co., Ltd.). Within half an hour after the blood sample was collected, the blood sample was centrifuged at 3000 g at 4° C. for 10 minutes, and the supernatant plasma was drawn, quickly placed in dry ice, and stored in a refrigerator at −80° C. for LC-MS/MS analysis.
Data analysis: Plasma concentrations were processed using a non-compartmental model of WinNonlin™ Version6.3 (Pharsight, MountainView, Calif.) pharmacokinetic software, and pharmacokinetic parameters Cmax, Tmax, T1/2, and AUC0-last were calculated using a linear log trapezoid method.

HER1 (ErbB1) = HER1 (ErbB1) (Homo sapiens, UniProt P00533); experiment: in vitro enzyme activity, HER1 (ErbB1); assay type: biochemical; settings: human ErbB1, [γ-33P]ATP, poly(Glu, Tyr) substrate
Procedure: (§1) The purpose of this assay is to detect the in vitro inhibitory activity of compounds on HER1 (ErbB1), HER2 (ErbB2), and HER4 (ErbB4). The enzymes used in this assay are human ErbB1, ErbB2 and ErbB4. Eurofins Pharma Discovery Service provided the method for activity detection.
(§2) Steps and Method of the Assay (96-Well Plate):
(§3) A buffer solution of the test compounds in a dilution of 5-fold (5 μL), polypeptide substrate poly(Glu, Tyr) (4:1) (2.5 μL), ErbB (4-20 ng, 2.5 μL), MnCl2 (50 mM, 1.25 μL), dH2O (3.75 μL), and [γ-^33P]ATP (10 μL) were added, and incubated at 30° C. for 10 minutes. The reaction was terminated by adding 3% phosphoric acid. 10 μL of the sample was taken and transferred to Filtermate A. The filter disc was washed 3 times with 75 mM phosphoric acid and once with methanol. The filter disc was transferred to a sealed plastic bag and the scintillation mixture (4 mL) was added. The intensity of the emitted photon was detected by a scintillation luminescence counter. The CPM (times/min) of the enzyme sample was compared with the CPM of the internal control sample. The level of photon intensity reflected the degree of the tyrosine kinase activity.

HER2 (ErbB2) = HER2 (ErbB2) (Homo sapiens, UniProt P04626); experiment: in vitro enzyme activity, HER2 (ErbB2); assay type: biochemical; settings: human ErbB2, [γ-33P]ATP, poly(Glu, Tyr) substrate
Procedure: as §1, §2, §3

HER4 (ErbB4) = HER4 (ErbB4) (Homo sapiens, UniProt Q15303); experiment: in vitro enzyme activity, HER4 (ErbB4); assay type: biochemical; settings: human ErbB4, [γ-33P]ATP, poly(Glu, Tyr) substrate
Procedure: as §1, §2, §3

BT-474 cell = experiment: inhibitory activity on cell proliferation (Cell-Titer-Glo), BT-474; assay type: cell-based; settings: Homo sapiens
Description: (§4) Purpose of the assay: to detect the inhibitory activity of the test compounds on cell proliferation.
(§5) Principle of the assay: the luciferase in a Cell-Titer-Glo reagent produces oxidized luciferin with luciferin, oxygen and ATP as reaction substrates, and releases energy in the form of light. Since the luciferase reaction requires ATP, the total amount of light generated by the reaction is proportional to the total amount of ATP that reflects cell viability.
(§6) Cell Titer-Glo cell viability assay kit with luminescence (Promega #G7573)
(§7) According to the schematic diagram of the cell seed plate, cells were seeded in a 384- or 96-well plate at a density of 1000 cells per well and 25 μL per well, and 25 μL of PBS was added to the wells near edge of the place where no cells were seeded.
(§8) (1) The stock solution of the compounds has a concentration of 10 mM, and the compounds were diluted with DMSO to an initial concentration of 4 mM. The compounds were added to the plate with stock solution of compounds, 9 μL per well.
(§9) (2) The compounds were diluted with an ECHO liquid workstation, where 125 nL of compounds were added to each well of the cell plate, 125 nL of DMSO was added to each of the cell well in columns 2 and 23, and 125 nL of DMSO was added to each PBS well in columns 1 and 24.
(§10) 2.3 After addition of the compounds, the cell plate was centrifuged at 1000 rpm for 1 min, and then placed in a 37° C., 5% CO2 incubator for incubation for 3 days.
(§11) The cell plate was taken out from the incubator and equilibrated at room temperature for 30 minutes. 25 μL of Cell-Titer-Glo reagent was added to each well, shaken for one minute to allow well mixed, and centrifuged at 1000 rpm for 1 minute. After 10 minutes, the plate was read on PerkinElmer Envision, and the […] reading time was set to 0.2 second.

NCI-N87 cell = experiment: inhibitory activity on cell proliferation (Cell-Titer-Glo), NCI-N87; assay type: cell-based; settings: Homo sapiens
Description: as §4, §5, §6, §7, §8, §9, §10, §11

OE21 cell = experiment: inhibitory activity on cell proliferation (Cell-Titer-Glo), OE21; assay type: cell-based; settings: Homo sapiens, OE21, 72 h, incubation for 3 days
Description: as §4, §5, §6, §7, §8, §9, §10, §11

OE19 cells = experiment: CTG assay of OE19 cells; assay type: cell-based; settings: Homo sapiens, 72 hours of cell culture, Cell Titer Glo
Procedure: OE19 cells with saturation of 80%-90% were digested with trypsin, centrifuged, resuspended and counted. The concentration of cells was adjusted to […]. OE19 cells were added to a 96-well cell culture plate to 8000 OE19 cells per well. The cells were cultured in a cell incubator containing 5% CO2 at 37° C. overnight.
The stock solution of the test compounds was serially 3-fold diluted with DMSO to a total of 10 concentrations. Before the start of the assay, the serially diluted test compounds were further diluted to 10× compound solutions (the compound with a highest concentration contains 1% DMSO) with cell culture medium under sterile conditions. The prepared 10× compound solutions were added to the cell culture plate, and the 10 μL compound solution was added to each well. In this way, the final concentrations of staurosporine as the standard control and all the test compounds were obtained starting from […] as the initial concentration in a 3-fold serial dilution to get 10 test concentrations.
After 72 hours of cell culture, the 96-well cell culture plate was taken out. Cell Titer Glo reagent was added at […], mixed, centrifuged, and incubated at room temperature in the dark for 10 minutes. The cell plate was placed in Envision for reading.
The inhibition rate was calculated according to original data as follows:
Inhibition %=(ZPE−sample detection value)/(ZPE−HPE)×100%
The well containing 10 mM staurosporine on DAY3 (the first day of the assay is the day when compounds were added, and DAY3 is the day when reading is perfomed) was used as the HPE (100% inhibition control) well, and the well containing 0.1% DMSO on DAY3 was used as the ZPE (0% inhibition control) well. Each concentration of test compounds was tested in duplicate.
Non-linear regression analysis was performed using the processed data and GraphPad Prism 6 analysis software to obtain a dose-response curve, and the half-inhibitory concentration (IC50) of the test compounds on OE19 cells was calculated.

[3] = BT-474, footnote d: initial dilution concentration of compounds is 10 μM
[4] = NCI-N87, footnote d: initial dilution concentration of compounds is 10 μM
[5] = NCI-N87, 72 h, incubation for 3 days, Cell-Titer-Glo

Sequence of HER4 (ErbB4) (Q15303 26-1308): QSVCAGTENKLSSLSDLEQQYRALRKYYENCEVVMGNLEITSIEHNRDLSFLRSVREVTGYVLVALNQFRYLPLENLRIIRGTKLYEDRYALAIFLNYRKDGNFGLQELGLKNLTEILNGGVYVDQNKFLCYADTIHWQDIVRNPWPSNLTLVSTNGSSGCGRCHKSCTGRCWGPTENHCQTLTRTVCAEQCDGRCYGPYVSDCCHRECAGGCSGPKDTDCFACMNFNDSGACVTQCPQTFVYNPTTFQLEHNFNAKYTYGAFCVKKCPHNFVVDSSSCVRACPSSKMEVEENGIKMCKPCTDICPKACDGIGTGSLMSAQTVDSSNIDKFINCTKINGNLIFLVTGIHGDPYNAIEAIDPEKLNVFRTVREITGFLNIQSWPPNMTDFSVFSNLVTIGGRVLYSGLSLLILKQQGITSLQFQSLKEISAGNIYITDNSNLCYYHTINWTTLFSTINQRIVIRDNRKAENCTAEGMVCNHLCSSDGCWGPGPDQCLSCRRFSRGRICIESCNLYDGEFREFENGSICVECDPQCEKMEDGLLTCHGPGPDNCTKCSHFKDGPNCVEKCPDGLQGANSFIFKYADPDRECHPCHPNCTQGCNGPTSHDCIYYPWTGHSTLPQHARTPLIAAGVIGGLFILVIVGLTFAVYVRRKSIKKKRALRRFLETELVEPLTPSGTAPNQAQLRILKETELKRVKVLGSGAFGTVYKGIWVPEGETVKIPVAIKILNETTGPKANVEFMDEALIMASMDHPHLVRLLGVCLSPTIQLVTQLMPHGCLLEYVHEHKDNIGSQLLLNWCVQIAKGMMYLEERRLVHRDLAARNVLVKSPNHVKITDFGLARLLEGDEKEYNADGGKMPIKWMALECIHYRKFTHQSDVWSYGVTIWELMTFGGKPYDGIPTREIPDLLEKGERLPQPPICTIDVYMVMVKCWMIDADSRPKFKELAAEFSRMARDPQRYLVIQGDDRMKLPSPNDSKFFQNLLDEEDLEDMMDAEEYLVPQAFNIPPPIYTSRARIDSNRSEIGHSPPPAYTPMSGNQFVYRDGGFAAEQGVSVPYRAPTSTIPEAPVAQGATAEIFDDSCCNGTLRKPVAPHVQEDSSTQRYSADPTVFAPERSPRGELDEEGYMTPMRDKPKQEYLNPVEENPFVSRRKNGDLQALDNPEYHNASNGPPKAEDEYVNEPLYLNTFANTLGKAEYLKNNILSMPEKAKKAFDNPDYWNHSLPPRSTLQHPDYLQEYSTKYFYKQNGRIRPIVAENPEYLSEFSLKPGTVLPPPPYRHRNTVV
Sequence of HER2 (ErbB2) (P04626 23-1255): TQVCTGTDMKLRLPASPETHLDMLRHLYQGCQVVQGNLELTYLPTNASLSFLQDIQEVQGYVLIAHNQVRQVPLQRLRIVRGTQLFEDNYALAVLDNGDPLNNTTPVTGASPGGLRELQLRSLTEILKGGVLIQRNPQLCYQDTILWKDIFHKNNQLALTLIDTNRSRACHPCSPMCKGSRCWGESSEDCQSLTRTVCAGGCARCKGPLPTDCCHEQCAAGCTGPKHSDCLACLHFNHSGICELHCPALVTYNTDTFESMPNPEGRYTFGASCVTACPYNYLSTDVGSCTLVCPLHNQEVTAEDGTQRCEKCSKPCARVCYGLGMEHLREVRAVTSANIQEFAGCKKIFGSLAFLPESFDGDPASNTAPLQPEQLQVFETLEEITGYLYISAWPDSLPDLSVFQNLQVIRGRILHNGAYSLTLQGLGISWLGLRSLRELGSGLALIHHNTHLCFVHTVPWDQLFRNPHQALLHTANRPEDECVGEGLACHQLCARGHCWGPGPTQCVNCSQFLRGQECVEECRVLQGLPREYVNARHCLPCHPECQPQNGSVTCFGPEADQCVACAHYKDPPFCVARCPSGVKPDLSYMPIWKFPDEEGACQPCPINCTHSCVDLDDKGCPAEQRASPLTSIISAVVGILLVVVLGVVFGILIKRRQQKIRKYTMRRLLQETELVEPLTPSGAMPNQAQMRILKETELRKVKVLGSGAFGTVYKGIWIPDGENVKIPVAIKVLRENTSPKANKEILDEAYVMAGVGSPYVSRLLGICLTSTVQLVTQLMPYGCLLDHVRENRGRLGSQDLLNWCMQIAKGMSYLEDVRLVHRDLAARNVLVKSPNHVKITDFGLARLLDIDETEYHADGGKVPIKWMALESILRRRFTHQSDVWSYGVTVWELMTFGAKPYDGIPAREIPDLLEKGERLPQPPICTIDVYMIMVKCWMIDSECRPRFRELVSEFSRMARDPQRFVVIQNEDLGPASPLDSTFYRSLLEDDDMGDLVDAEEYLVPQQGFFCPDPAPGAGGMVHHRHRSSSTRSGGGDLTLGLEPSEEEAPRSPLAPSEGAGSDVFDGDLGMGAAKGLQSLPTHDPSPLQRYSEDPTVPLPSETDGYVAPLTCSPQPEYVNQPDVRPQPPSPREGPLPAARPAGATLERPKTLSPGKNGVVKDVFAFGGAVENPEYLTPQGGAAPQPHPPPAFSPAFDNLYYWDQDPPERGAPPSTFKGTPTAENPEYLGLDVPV
Sequence of HER1 (ErbB1) (P00533 25-1210): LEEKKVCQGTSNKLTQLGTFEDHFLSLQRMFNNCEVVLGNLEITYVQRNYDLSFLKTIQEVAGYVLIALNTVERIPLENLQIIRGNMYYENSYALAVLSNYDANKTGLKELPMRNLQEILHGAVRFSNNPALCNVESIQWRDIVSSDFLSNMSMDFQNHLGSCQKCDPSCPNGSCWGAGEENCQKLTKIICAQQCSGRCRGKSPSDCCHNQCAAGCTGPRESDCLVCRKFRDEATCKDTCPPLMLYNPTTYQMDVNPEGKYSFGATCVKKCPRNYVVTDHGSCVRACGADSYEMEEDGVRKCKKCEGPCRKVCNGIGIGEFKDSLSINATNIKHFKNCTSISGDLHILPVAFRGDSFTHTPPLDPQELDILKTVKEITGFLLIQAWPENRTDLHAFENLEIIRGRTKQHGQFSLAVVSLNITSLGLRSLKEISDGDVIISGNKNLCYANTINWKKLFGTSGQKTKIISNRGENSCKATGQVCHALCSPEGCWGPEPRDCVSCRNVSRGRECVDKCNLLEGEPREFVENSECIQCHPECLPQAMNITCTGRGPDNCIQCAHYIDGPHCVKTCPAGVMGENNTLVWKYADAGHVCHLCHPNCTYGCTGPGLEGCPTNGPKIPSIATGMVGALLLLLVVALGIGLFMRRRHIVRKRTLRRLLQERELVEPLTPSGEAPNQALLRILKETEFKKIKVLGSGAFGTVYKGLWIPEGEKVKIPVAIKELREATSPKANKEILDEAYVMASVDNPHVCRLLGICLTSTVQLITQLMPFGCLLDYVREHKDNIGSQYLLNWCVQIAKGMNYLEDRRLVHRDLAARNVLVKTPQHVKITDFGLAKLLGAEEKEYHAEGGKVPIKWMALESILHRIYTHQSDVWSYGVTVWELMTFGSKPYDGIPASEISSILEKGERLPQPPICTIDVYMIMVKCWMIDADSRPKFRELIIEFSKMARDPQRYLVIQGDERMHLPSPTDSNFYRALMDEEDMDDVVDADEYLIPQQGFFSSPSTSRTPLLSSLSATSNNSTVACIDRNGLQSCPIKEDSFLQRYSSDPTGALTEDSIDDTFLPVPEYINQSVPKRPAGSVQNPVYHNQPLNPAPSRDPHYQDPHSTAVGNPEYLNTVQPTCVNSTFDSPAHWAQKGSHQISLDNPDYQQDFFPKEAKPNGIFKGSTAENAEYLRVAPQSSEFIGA

Row | Compound | IC50 (HER1 (ErbB1)) | IC50 (HER2 (ErbB2)) | IC50 (HER4 (ErbB4)) | IC50 (BT-474 cell; [3]) | IC50 (NCI-N87 cell; [4]) | further results
1 | C=CC(=O)N1CCC(Nc2cc3c(Nc4ccc(F)c(Cl)c4)ncnc3cc2OC)CC1 [Control compound 2] |  |  |  |  |  | Tumor volume (mm^3) (Day 21) ([1]; NCI-N87 xenograft, Mean + SEM): 541 ± 88 mm^3; T/C (%) ([1]; day 21): 89.35%; TGI (%) ([1]; day 21): 18.83%; Tmax ([2]; oral): 2 h; half-life ([2]; oral): 1.5 h; AUC(0-t) ([2]; oral plasma exposure): 82 µM·h; Cmax ([2]; oral plasma exposure): 15.3 µM
2 | C=CC(=O)N1C[C@H]2C[C@@H](C1)[C@H]2Nc1cc2c(Nc3ccc(Cl)c(Cl)c3F)ncnc2cc1OC [Example 9] | 9 nM | 13 nM | 8 nM | 2.1 nM | 0.9 nM | 
3 | C=CC(=O)N1C[C@H]2C[C@@H](C1)[C@H]2Oc1cc2c(Nc3ccc(Cl)c(Cl)c3F)ncnc2cc1OCCO [Example 13] | 5 nM | 8 nM | 7 nM | 2 nM | 1.6 nM | 
4 | C=CC(=O)N1C[C@H]2C[C@@H](C1)[C@H]2Oc1cc2c(Nc3ccc(Cl)c(Cl)c3F)ncnc2cc1OCCCN1CCOCC1 [Example 18] | 9 nM | 12 nM | 5 nM | 2.4 nM | 1.3 nM | 
5 | C=CC(=O)N1[C@@H]2CC[C@H]1C[C@H](Oc1cc3c(Nc4ccc(Cl)c(Cl)c4F)ncnc3cc1OCC)C2 [Example 21] | 12 nM | 5 nM | 3 nM |  |  | IC50 (BT-474 cell; BT-474, 72 h, incubation for 3 days, Cell-Titer-Glo): 0.46 nM; IC50 (NCI-N87 cell; [5]): 0.35 nM
6 | C=CC(=O)N1[C@@H]2CC[C@H]1C[C@H](Oc1cc3c(Nc4ccc(F)c(Cl)c4F)ncnc3cc1OC)C2 [Example 34] | 5 nM | 4 nM | 2 nM |  |  | IC50 (NCI-N87 cell; [5]): 0.42 nM; IC50 (OE21 cell): 0.27 nM; IC50 (OE19 cells): 0.001 nM
7 | C=CC(=O)N1[C@@H]2CC[C@H]1C[C@H](Nc1cc3c(Nc4ccc(F)c(Cl)c4F)ncnc3cc1OC)C2 [Example 48] | 9 nM | 11 nM | 4 nM |  |  | IC50 (OE21 cell): 0.17 nM; IC50 (OE19 cells): 0.24 nM
